Test results as given in ChEMBL document CHEMBL1201862, “PubChem BioAssay data set” (2004).
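Assay format: 96-well plates, 48-hour exposure. The concentration for 50% growth inhibition is given as GI50.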 Calls of active or inactive are those of the source. Rule as the data show it: active = GI50 up to about 1.1 µM and inactive = higher.

What was measured:
Experiment in all cases: inhibition of tumour cell growth, NCI panel, 48 h
OVCAR-8 = tested on: OVCAR-8
KM12 = tested on: KM12
786-0 = tested on: 786-0
SF-268 = tested on: SF-268
TK-10 = tested on: TK-10
A549 = tested on: A549
NCI-H460 = tested on: NCI-H460
ACHN = tested on: ACHN
UO-31 = tested on: UO-31
HCC 2998 = tested on: HCC 2998
SNB-19 = tested on: SNB-19
EKVX = tested on: EKVX
NCI-H522 = tested on: NCI-H522
MDA-MB-231 = tested on: MDA-MB-231
CCRF-CEM = tested on: CCRF-CEM
HT-29 = tested on: HT-29
OVCAR-5 = tested on: OVCAR-5
SK-MEL-5 = tested on: SK-MEL-5
CAKI-1 = tested on: CAKI-1
UACC-257 = tested on: UACC-257

Measured: GI50

C=CCn1c(-c2ccc(-c3cs/c(=N\N=O)n3CC=C)cc2)cs/c1=N\N=O
inactive: OVCAR-8 88.1 µM | KM12 > 100 µM | 786-0 62.5 µM | SF-268 > 100 µM | TK-10 > 100 µM | A549 > 100 µM | NCI-H460 > 100 µM | ACHN > 100 µM | UO-31 > 100 µM | HCC 2998 > 100 µM | SNB-19 > 100 µM | EKVX > 100 µM | NCI-H522 83.2 µM | MDA-MB-231 23.4 µM | CCRF-CEM > 100 µM | HT-29 > 100 µM | OVCAR-5 > 100 µM | SK-MEL-5 > 100 µM | CAKI-1 > 100 µM | UACC-257 > 100 µM

CN(CCCCN1CCCC1)CCCCN(C)C(=O)Cc1ccc(Cl)c(Cl)c1
inactive: OVCAR-8 21.3 µM | KM12 13.1 µM | 786-0 12.3 µM | SF-268 17.2 µM | TK-10 18.2 µM | A549 14.4 µM | NCI-H460 14.8 µM | ACHN 20.7 µM | UO-31 1.71 µM | HCC 2998 5.09 µM | SNB-19 19.3 µM | EKVX 20.5 µM | NCI-H522 11.5 µM | MDA-MB-231 10.1 µM | CCRF-CEM 6.22 µM | HT-29 3.85 µM | OVCAR-5 21.9 µM | SK-MEL-5 6.43 µM | CAKI-1 19.5 µM | UACC-257 2.52 µM

c1ccc2nc(CCC3CCCCN3)ccc2c1 (stereo not given)
inactive: OVCAR-8 > 100 µM | KM12 > 100 µM | 786-0 > 100 µM | SF-268 > 100 µM | TK-10 > 100 µM | A549 > 100 µM | NCI-H460 87.9 µM | ACHN > 100 µM | UO-31 78.3 µM | HCC 2998 > 100 µM | SNB-19 > 100 µM | EKVX 42.2 µM | NCI-H522 40.6 µM | MDA-MB-231 > 100 µM | CCRF-CEM 83.2 µM | HT-29 > 100 µM | OVCAR-5 > 100 µM | SK-MEL-5 38.2 µM | CAKI-1 > 100 µM | UACC-257 42.7 µM

c1ccc([P+](Cc2ccc(C[P+](c3ccccc3)(c3ccccc3)c3ccccc3)cc2)(c2ccccc2)c2ccccc2)cc1
inactive: OVCAR-8 45.8 µM | KM12 41.8 µM | 786-0 47.5 µM | SF-268 > 100 µM | TK-10 81.7 µM | A549 45.7 µM | NCI-H460 12.4 µM | ACHN > 100 µM | UO-31 18.4 µM | HCC 2998 91 µM | SNB-19 26.4 µM | EKVX 21.8 µM | NCI-H522 62.2 µM | MDA-MB-231 61.8 µM | CCRF-CEM 71 µM | HT-29 25 µM | OVCAR-5 88.5 µM | SK-MEL-5 27.2 µM | CAKI-1 > 100 µM | UACC-257 37.1 µM

C=CC(C1=CC(=O)C(OC)=CC1=O)c1ccccc1 (stereo not given) [4-METHOXYDALBERGIONE]
inactive: OVCAR-8 20.5 µM | KM12 15.7 µM | 786-0 14.1 µM | SF-268 16.3 µM | TK-10 18.1 µM | A549 25.4 µM | NCI-H460 17.1 µM | ACHN 14.3 µM | UO-31 15.9 µM | HCC 2998 16.7 µM | SNB-19 15.8 µM | EKVX 16.1 µM | NCI-H522 6.93 µM | MDA-MB-231 6.97 µM | CCRF-CEM 1.91 µM | HT-29 19.3 µM | OVCAR-5 20.3 µM | SK-MEL-5 16.3 µM | CAKI-1 17.2 µM | UACC-257 19.2 µM
